Test results from BindingDB's records for doi:10.1021/jm990590f (Dupont Pharmaceuticals, 2000).
pIC50, pKi: −log10 of the molar value.

How the values were obtained:
[1] = biological target: Corticotropin-releasing factor receptor 1 (Rattus norvegicus) (UniProt P35353); test: Compound was tested for the inhibition of binding of the radioligand, [125 I-Tyr0]-CRF to rat cerebral cortex membrane
[2] = biological target: Corticotropin-releasing factor receptor 1 (Rattus norvegicus) (UniProt P35353); test: Inhibition of corticotropin releasing factor receptor mediated increase in cAMP level using rat cortical homogenates in vitro.

Sequence of Corticotropin-releasing factor receptor 1 (Rattus norvegicus) (P35353 whole entry, looked up): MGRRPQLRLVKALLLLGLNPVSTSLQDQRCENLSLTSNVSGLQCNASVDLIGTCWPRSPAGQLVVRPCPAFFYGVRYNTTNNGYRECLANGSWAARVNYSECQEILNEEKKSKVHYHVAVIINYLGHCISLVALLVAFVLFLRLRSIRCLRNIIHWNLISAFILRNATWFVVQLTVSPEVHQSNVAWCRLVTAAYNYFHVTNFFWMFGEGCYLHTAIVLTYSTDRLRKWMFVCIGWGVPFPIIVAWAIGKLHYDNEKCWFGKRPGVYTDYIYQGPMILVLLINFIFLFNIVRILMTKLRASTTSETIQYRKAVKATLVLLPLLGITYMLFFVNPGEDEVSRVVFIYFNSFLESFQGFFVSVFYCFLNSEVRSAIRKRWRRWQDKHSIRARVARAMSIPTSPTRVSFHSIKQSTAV

Row | Compound | pKi [1] | pIC50 [2]
1 | CCN(c1nc(C)cc(N2CCOCC2)n1)c1ccc(C(C)C)cc1Br [(2-Bromo-4-isopropyl-phenyl)-ethyl-(4-methyl-6-morpholin-4-yl-pyrimidin-2-yl)-amine] | 7.20 | –
2 | COCC(COC)n1nnc2c(Nc3c(C)cc(C)cc3Cl)nc(C)cc21 [DMP-695] | – | 7.10
